Patent publication US10524472B2, “Elicitor peptides having disrupted hypersensitive response box and use thereof” (Plant Health Care, Inc., priority 2014, dated 2020)
Marks after values point to notes of the source that are not given here.

Experiments:
soybean seeds = assay: Root & shoot growth analysis after seed soak, soy; type: in vivo; settings: for Root (root growth index, percentage increase over untreated control) / Shoot (shoot length, percentage increase over untreated control): soy, 12-14 days
Experimental: Peptides were tested for biological effects on the allocation of growth resources to the shoot (above ground) and root (below ground). Peptides were dissolved at 0.2, 2, or 5 μg/ml in a total volume of 100 ml deionized water. Corn or soybean seeds were then soaked for one hour in the peptide solution. Untreated control (UTC) plants were soaked in deionized water. Clear plastic 300 ml beverage cups (Solo®, Dart Container Corporation) were prepared for planting by marking the bottom with a cross, dividing the bottom into four equal quadrants. The cups were then filled with Sunshine Mix #1 soil (SunGro Horticulture) sieved to ¼″. 100 ml of water was added to the soil. Treated seeds were then planted by pressing the seed lightly into the top of the soil. The seeds were then covered with an additional 50 ml of loose soil. Seeds were allowed to germinate and grow for 12-14 days.
The length of the shoot was measured as the distance from the soil to the lightly stretched tip of the highest leaf for each plant. […] Stunting was defined as lacking a fully expanded true leaf at time of data collection or having an expanded true leaf judged by eye to be <½ the average leaf area of the treatment group. Generally, 30 seeds were planted per treatment group and 15-25 plants were used for data collection.
Root growth was estimated by counting the number of times that a primary root crosses the quadrant marks on the bottom of the cup. These were often observed along the bottom circumference of the cup, although some were visible along the side of the container and were counted as if crossing a vertical extension of the quadrant line. This number was divided by 4 to produce a root growth index.
Each number indicates the percentage increase over the untreated control values.

Soy plants = assay: Growth tests after foliar spray, soy; type: in vivo; settings: for growth, dry biomass and fresh mass (text summary of Table 21): foliar spray; for Dry biomass increase (%) / Fresh mass increase (%) / Growth increase (%): soy, 14 days
Experimental: (§1) Soy seeds (or corn seeds, as indicated) were planted in flats with 2 seeds per cell within the flat at a greenhouse facility. The seeds were allowed to germinate and the smaller plant is culled, leaving one plant per cell. Once the first true leaves are fully expanded and the second leaves are beginning to expand, the plants were initially measured for height. This was performed by stretching the highest leaf upward and measuring the distance to the soil. Peptides were dissolved in water at the indicated concentrations (Table 21 below). The plants were then treated with a foliar spray using widely available spray bottles until liquid was dripping from the leaves. Six flats of 14 plants each were treated per condition (peptide or control). Designated untreated control plants were sprayed with water. The plants were allowed to grow for 14 days. The height of the plants was again measured and compared to the original height to quantify growth. Finally, the plants were harvested by removing the shoots (all above-ground material). For some experiments, this was weighed upon harvesting to determine the fresh mass (including water weight). The shoots were then dried at 70° C. for 72 hours, and again weighed to determine dry biomass. Although this method uses a similar measure (growth) as in Example 3 above, the treatment method is different (seed soak vs. foliar spray). As a result, the experimental outcomes may diverge.

[1] = system: tobacco mosaic virus (TMV); assay: Induction of resistance to tobacco mosaic virus in tobacco; type: in vivo; settings: for Effectiveness Covered (%) (decline in TMV lesions vs UTC, systemic response) / Effectiveness Uncovered (%) (decline in TMV lesions vs UTC, local response): TMV 3 days post-treatment, scored 3 days after inoculation
corn plants = assay: Growth tests after foliar spray, corn; type: in vivo
Experimental: as §1

[2] = system: soy plants (leaf tissue discs); assay: Peroxide response, ferric-xylenol orange assay on soy leaf discs; type: cell-based; settings: 0.5 ug/ml peptide, one hour, absorbance at 595 nm vs blank
Experimental: (§2) The ferric-xylenol orange complex assay for hydrogen peroxide (Gay et al., Analytical Biochemistry 273:149-55 (1999), which is hereby incorporated by reference in its entirety) was used to determine peroxide production by plant leaf tissue. Briefly, reagent A was prepared by mixing 10 mg of ferrous ammonium sulfate with 133 uL of sulfuric acid in a total volume of 1 mL with water. Reagent B was prepared by mixing 2 g of sorbitol with 9.34 mg of xylenol orange in 80 ml of water. 1M hydrochloric acid was slowly added until the solution turned yellow. The solution was then diluted with water to a total volume of 100 mL, and stored in a dark bottle at 4° C.
(§3) Leaves from either tobacco plants (plants grown to 6 true leaves) or soy plants (plants grown to 6 true leaves) were used for the assay. The leaf was first removed from the plant and placed on a paper towel. 0.5 cm leaf tissue circles were then removed from the leaf using a leather punch tool. These discs were then placed into the wells of a 96-well plate. […] of water was added to each disc. The plate was covered with parafilm and rested for 12 hours in the dark. The excess water was then removed and the wells washed with an additional 250 uL of water. The washes were then removed from the wells and replaced with 105 uL of a 0.5 ug/ml solution of peptide in water or water blank, generally in quadruplicate. Where peptide solubility was a problem, pH buffer was added to both the blank and peptide samples. Leaf discs were incubated with the peptides for one hour under fluorescent lighting. 50 ul of the solution from each leaf sample was removed to a new well for chemical analysis.
(§4) Just prior to analysis, reagents A and B were freshly mixed in a 1:100 ratio to produce the assay reagent. 200 ul of this mixture was added to each well containing 50 ul of leaf-treated solution. The plate was incubated in the dark for 20 minutes and the absorbance at 595 nm was detected. Results were analyzed using a two-tailed Student's T-test. The results were divided into several response classes. XR++ indicated a positive response with absorbance >0.05 units above the negative control and a Student's T-test p<0.05. XR+ indicated an absorbance <0.05 units above the blank and a Student's T-test p<0.05. XR weak indicated a response >0.02 units above the negative control with a p-value that was not significant. XR− indicated an absorbance within 0.02 units of the negative control. It should be noted that there can be significant biological variability in the peroxide response due to plant age, location of the disc within the leaf, and other factors. As a result, p-values from the T-test are a guide and not an absolute inclusion criterion.

[3] = system: tobacco plants (leaf tissue discs); assay: Peroxide response, ferric-xylenol orange assay on tobacco leaf discs; type: cell-based; settings: 0.5 ug/ml peptide, one hour, absorbance at 595 nm vs blank
Experimental: as §2, §3, §4

[4] = foliar spray 2.0 ug/ml, 14 days

## ANNQDPMQALMQLLEDLV (P14a)
Soybean seeds; seed soak
  root growth (text summary of Table 20): Increased root growth
Soybean seeds; seed soak, p14a soy at 0.2 μg/ml
  shoot growth (Table 20): increased shoot growth
Soybean seeds; seed soak 0.2 μg/ml
  Root (root growth index, percentage increase over untreated control): −2.7%
  Shoot (shoot length, percentage increase over untreated control): 8.7%*
Soybean seeds; seed soak 5.0 μg/ml
  Root (root growth index, percentage increase over untreated control): 10.3%*
  Shoot (shoot length, percentage increase over untreated control): −3.5%
Soy plants
  growth, dry biomass and fresh mass (text summary of Table 21): increases for all 3 measures
Soy plants; listed as p14a
  growth, dry biomass and fresh mass (text summary of Table 21): increases in growth and dry biomass
Soy plants; foliar spray 0.2 ug/ml
  Dry biomass increase (%): 12.6%
  Fresh mass increase (%): 46.8%
  Growth increase (%): 14.7%
Soy plants; foliar spray 2.0 ug/ml
  Dry biomass increase (%): 11.0%
  Fresh mass increase (%): 57.9%
  Growth increase (%): 3.4%
Soy plants; foliar spray 5.0 ug/ml
  Dry biomass increase (%): 10.6%
  Fresh mass increase (%): 83.3%
  Growth increase (%): 8.9%

## NQGISEKQLDQLLTQLI (P1-29)
[1]; spray 10 ug/ml
  Effectiveness Covered (%) (decline in TMV lesions vs UTC, systemic response): 18%
  Effectiveness Uncovered (%) (decline in TMV lesions vs UTC, local response): 44%
Corn plants; foliar spray
  growth benefit in corn: modest growth benefit
Corn plants; [4]
  Dry biomass increase (%): 5.7%
  Fresh mass increase (%): 5.1%
  Growth increase (%): 7.8%

## QAGPQSANKTGNVDDANNQDPAQALEQLLEDLV (P14-22A,26E)
[1]; spray 20 ug/ml
  Effectiveness Covered (%) (decline in TMV lesions vs UTC, systemic response): 85* %
  Effectiveness Uncovered (%) (decline in TMV lesions vs UTC, local response): 91* %
[2]
  Peroxide Response, Soy: Weak+

## QAGPQSANKTGNVDDANNQDPEQALEQLLEDLV (P14-22E,26E)
[1]; spray 20 ug/ml
  Effectiveness Covered (%) (decline in TMV lesions vs UTC, systemic response): 62%
  Effectiveness Uncovered (%) (decline in TMV lesions vs UTC, local response): 74* %
[3]
  Peroxide Response, Tobacco: Weak+

## QAGPQSANKTGNVDDANNQDPLQALEQLLEDLV (P14-22L,26E)
[1]; spray 20 ug/ml
  Effectiveness Covered (%) (decline in TMV lesions vs UTC, systemic response): 91* %
  Effectiveness Uncovered (%) (decline in TMV lesions vs UTC, local response): 70* %
[3]
  Peroxide Response, Tobacco: Weak+

## QAGPQSANKTGNVDDANNQDPLQALLQAAEDLV (P14-22L,28-29A)
[1]; spray 10 ug/ml
  Effectiveness Covered (%) (decline in TMV lesions vs UTC, systemic response): 84* %
  Effectiveness Uncovered (%) (decline in TMV lesions vs UTC, local response): 83* %
[2]
  Peroxide Response, Soy: Weak+

## QAGPQSANKTGNVDDANNQDPLQALLQLLEDLV (P14-22L,26L)
[1]; spray 20 ug/ml
  Effectiveness Covered (%) (decline in TMV lesions vs UTC, systemic response): 67* %
  Effectiveness Uncovered (%) (decline in TMV lesions vs UTC, local response): 65* %
[2]
  Peroxide Response, Soy: Weak+

## QAGPQSANKTGNVDDANNQDPMQALMQLL (P14-dc4)
[1]; foliar spray
  TMV response / effectiveness against TMV infection (summary of Table 22): reduced effectiveness against TMV infection
[1]; spray 10 ug/ml
  Effectiveness Covered (%) (decline in TMV lesions vs UTC, systemic response): 19%
  Effectiveness Uncovered (%) (decline in TMV lesions vs UTC, local response): 34%
Soy plants
  growth, dry biomass and fresh mass (text summary of Table 21): lose the significant growth, dry biomass, and fresh mass benefits
Soy plants; foliar spray 0.2 ug/ml
  Dry biomass increase (%): 5.6%
  Fresh mass increase (%): 7.5%
  Growth increase (%): 2.6%
Soy plants; foliar spray 2.0 ug/ml
  Dry biomass increase (%): −1.6%
  Fresh mass increase (%): 0.4%
  Growth increase (%): −4.6%
Soy plants; foliar spray 5.0 ug/ml
  Dry biomass increase (%): −7.6%
  Fresh mass increase (%): −15.4%
  Growth increase (%): −17%

## QAGPQSANKTGNVDDANNQDPMQALMQLLEDLV (P14)
Soybean seeds; seed soak
  root growth (text summary of Table 20): Increased root growth
Soybean seeds; seed soak 5.0 μg/ml
  Root (root growth index, percentage increase over untreated control): 24.9%*
  Shoot (shoot length, percentage increase over untreated control): 4.4%
[3]
  Peroxide Response, Tobacco: Weak+
Soy plants
  growth, dry biomass and fresh mass (text summary of Table 21): increases in growth and dry biomass
Soy plants; foliar spray 2.0 ug/ml
  Dry biomass increase (%): 1.6%
  Growth increase (%): 25.8%
Soy plants; foliar spray 5.0 ug/ml
  Dry biomass increase (%): 3%
  Growth increase (%): 31.4%
